Data published in the supplement of paper PMC12463676, “Small-molecule dissolution of stress granules by redox modulation benefits ALS models” (Nature Chemical Biology, 2025).

What was measured:
potassium arsenate = compound: O=[As]([O-])(O)O.[K+] [potassium arsenate]; test: thermal stability z-score vs DMSO; higher = more thermally stabilized by treatment; conditions: HeLa; arsenate concentration 1 mM
Protocol: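 Cellular thermal proteome profiling in HeLa cells treated with 1 mM arsenate for 1 h (DMSO pretreatment), heated to ten temperatures (37-66.3 °C). Soluble protein was quantified by TMT mass spectrometry relative to DMSO controls; the thermal stability score was transformed to a z-score; mean of n = 3 experiments.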

lipoamide = compound: NC(=O)CCCCC1CCSS1 [lipoamide]; test: as above; conditions: HeLa, lipoamide concentration 100 µM
Protocol: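 Cellular thermal proteome profiling in HeLa cells. Cells were treated with 100 µM lipoamide for 1 h, with or without 1 mM arsenate for a further 1 h, then heated to ten temperatures (37-66.3 °C), and soluble protein was quantified by TMT mass spectrometry relative to 0.1% DMSO controls. The thermal stability score (sum of log2 fold changes minus the abundance score) was transformed to a z-score; mean of n = 3 experiments.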

[1] = arsenate co-treatment: 1 mM arsenate 1 h
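Note: each temperature applied for 3 min, abundance score taken as mean log2 fold change at the two lowest temperatures, z-score obtained by mean subtraction and division by SD.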

UniProt Q9UNF1, sequence (Q9UNF1 whole entry): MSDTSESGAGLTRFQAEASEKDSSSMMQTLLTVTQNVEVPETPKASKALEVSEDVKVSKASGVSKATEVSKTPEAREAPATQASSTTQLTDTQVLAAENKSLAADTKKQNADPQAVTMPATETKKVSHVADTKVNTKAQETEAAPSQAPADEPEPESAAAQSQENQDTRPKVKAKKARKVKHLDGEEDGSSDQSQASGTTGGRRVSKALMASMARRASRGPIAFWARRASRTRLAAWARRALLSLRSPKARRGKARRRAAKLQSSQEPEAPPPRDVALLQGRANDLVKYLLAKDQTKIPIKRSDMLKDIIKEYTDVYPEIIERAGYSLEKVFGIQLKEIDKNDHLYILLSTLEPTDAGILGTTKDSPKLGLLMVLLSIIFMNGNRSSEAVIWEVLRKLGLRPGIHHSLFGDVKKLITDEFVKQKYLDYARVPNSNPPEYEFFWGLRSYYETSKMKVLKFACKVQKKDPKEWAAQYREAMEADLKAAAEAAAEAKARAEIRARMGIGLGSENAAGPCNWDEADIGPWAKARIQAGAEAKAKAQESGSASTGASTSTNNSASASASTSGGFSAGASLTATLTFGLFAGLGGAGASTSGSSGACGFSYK
UniProt Q3KQU3, sequence (Q3KQU3 whole entry): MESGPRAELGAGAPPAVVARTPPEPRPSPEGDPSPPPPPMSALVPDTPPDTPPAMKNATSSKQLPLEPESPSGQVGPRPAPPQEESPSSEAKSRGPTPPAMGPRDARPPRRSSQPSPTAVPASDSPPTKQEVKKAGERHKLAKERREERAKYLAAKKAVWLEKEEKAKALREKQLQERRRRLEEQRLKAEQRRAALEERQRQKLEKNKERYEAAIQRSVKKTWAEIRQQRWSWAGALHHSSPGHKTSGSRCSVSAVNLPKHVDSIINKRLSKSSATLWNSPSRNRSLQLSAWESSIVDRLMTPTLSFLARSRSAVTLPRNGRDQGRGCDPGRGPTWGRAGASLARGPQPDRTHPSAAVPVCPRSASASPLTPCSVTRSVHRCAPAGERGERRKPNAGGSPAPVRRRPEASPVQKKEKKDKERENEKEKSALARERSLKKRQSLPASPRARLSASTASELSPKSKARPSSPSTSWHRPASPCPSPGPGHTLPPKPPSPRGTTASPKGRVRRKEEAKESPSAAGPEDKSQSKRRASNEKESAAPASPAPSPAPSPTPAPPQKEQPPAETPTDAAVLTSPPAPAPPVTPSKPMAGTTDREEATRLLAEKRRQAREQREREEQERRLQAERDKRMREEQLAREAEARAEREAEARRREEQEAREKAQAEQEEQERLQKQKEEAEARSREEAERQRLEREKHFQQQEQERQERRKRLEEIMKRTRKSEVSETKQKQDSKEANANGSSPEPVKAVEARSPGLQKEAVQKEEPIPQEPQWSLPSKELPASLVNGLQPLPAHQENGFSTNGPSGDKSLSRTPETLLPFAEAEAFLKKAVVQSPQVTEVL
UniProt Q8N653, sequence (Q8N653 whole entry): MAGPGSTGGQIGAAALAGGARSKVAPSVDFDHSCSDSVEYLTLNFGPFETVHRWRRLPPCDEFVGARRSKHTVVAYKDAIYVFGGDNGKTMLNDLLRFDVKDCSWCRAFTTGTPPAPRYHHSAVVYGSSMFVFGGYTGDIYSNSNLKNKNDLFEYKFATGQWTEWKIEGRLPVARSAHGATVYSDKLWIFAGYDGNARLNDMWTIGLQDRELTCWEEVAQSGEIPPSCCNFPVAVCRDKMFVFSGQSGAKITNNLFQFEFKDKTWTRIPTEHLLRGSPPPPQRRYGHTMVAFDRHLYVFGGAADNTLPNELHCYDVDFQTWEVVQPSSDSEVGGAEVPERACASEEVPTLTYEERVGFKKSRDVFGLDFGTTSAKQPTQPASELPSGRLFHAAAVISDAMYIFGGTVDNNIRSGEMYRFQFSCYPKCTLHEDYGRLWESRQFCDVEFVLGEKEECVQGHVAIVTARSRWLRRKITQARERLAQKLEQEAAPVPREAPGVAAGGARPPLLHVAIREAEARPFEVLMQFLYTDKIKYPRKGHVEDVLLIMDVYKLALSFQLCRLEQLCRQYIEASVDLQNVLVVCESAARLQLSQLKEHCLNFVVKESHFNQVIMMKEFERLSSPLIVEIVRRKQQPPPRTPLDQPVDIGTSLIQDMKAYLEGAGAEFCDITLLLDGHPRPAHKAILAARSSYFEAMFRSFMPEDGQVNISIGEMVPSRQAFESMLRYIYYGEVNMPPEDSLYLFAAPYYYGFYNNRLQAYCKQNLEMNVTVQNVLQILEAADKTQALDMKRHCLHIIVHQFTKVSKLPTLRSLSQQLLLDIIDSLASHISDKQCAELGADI
UniProt Q7L5Y9, sequence (Q7L5Y9 whole entry): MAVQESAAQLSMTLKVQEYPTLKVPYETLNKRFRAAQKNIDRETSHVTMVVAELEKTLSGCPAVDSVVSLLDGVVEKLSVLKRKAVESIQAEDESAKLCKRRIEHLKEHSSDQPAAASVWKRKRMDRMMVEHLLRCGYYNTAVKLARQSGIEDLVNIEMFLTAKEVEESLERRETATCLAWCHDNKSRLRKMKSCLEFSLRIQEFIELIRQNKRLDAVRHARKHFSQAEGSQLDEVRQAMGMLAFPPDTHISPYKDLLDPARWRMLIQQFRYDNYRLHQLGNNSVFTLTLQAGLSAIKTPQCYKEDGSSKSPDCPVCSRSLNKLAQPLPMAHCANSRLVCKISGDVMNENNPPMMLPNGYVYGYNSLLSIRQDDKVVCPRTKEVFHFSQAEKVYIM
UniProt P36507, sequence (P36507 whole entry): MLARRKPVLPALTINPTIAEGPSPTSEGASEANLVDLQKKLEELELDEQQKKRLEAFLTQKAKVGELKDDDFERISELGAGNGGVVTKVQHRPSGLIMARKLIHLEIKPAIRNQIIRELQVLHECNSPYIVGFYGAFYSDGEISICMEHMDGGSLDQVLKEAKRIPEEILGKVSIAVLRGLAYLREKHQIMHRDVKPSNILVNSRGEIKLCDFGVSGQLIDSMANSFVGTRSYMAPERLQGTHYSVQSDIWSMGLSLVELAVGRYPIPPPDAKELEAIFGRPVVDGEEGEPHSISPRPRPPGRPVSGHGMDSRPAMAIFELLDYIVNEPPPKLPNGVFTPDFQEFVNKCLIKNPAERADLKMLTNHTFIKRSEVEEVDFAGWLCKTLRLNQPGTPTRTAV
UniProt Q13164, sequence (Q13164 whole entry, looked up): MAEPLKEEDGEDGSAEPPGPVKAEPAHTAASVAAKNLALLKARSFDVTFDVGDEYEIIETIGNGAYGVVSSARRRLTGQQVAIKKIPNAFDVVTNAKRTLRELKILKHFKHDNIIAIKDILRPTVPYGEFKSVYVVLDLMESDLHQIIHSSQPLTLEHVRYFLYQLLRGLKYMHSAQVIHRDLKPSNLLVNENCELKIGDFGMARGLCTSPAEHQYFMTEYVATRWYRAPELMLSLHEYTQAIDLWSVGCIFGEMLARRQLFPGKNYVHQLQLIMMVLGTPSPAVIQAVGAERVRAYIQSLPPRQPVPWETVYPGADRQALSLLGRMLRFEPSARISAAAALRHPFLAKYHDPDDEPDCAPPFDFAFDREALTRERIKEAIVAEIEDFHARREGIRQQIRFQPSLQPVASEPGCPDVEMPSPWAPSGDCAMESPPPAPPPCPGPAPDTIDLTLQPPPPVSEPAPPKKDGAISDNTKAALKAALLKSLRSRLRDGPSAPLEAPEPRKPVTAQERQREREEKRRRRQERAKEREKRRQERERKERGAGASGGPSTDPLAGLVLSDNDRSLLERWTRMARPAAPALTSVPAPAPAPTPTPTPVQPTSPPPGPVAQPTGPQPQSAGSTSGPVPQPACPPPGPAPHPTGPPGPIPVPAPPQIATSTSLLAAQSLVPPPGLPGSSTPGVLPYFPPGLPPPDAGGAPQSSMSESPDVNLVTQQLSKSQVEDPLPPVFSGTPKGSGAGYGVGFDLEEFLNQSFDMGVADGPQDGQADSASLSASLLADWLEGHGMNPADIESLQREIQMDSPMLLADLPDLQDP
UniProt Q8IVH8, sequence (Q8IVH8 whole entry): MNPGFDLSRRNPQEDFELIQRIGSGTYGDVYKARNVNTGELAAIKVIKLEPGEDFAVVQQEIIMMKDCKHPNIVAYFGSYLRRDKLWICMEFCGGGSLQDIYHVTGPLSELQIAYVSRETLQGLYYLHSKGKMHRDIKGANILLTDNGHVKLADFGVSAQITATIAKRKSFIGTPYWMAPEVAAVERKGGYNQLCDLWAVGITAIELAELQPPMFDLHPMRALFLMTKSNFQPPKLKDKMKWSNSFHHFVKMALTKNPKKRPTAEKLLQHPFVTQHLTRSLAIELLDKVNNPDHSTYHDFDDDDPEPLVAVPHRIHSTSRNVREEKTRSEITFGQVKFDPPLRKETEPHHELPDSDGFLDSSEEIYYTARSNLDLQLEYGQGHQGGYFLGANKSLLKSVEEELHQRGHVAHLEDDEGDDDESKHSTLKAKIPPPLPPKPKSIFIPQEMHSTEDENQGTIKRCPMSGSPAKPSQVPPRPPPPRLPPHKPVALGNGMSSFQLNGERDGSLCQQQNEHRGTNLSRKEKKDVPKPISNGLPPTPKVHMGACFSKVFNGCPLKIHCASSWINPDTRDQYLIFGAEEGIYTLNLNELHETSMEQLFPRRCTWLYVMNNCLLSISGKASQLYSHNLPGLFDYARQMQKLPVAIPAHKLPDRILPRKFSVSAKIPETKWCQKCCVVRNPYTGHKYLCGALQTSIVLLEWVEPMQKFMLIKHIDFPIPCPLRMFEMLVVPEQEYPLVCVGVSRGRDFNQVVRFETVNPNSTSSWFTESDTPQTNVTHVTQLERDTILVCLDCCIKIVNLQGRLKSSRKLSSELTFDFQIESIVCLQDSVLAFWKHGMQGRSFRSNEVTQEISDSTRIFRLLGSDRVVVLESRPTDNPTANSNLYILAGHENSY
UniProt Q8WZA0, sequence (Q8WZA0 whole entry): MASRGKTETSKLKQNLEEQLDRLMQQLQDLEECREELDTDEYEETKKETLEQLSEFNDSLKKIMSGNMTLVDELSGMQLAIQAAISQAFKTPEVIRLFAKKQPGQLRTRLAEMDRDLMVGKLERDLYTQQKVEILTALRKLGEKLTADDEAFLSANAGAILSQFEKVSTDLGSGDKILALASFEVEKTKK

Target	thermal stability z-score (potassium arsenate)	thermal stability z-score (lipoamide; [1])	thermal stability z-score (lipoamide; arsenate co-treatment: none)
LYRM4 (UniProt Q9HD34)	-0.348	-0.401	0.0692
LYRM7 (UniProt Q5U5X0)	-0.0732	0.507	0.358
LYSMD1 (UniProt Q96S90)	0.777	1.23	0.621
LYSMD2 (UniProt Q8IV50)	1.46	1.24	0.886
LZIC (UniProt Q8WZA0)	0.906	0.558	0.781
LZTFL1 (UniProt Q9NQ48)	-0.312	0.0385	0.0985
LZTR1 (UniProt Q8N653)	-0.137	-0.12	0.0373
M6PR (UniProt P20645)	0.167	0.401	-0.0131
MACF1	-0.308	-0.0421	-0.0441
MACROD1 (UniProt Q9BQ69)	1.33	1.61	0.262
MAD1L1 (UniProt Q9Y6D9)	1.62	2.13	0.887
MAD2L1 (UniProt Q13257)	1.96	-0.109	-0.147
MAD2L2 (UniProt Q9UI95)	-0.211	-0.137	0.037
MADD (UniProt Q8WXG6)	1.3	0.198	1.4
MAEA (UniProt Q7L5Y9)	-0.343	-0.402	-0.993
MAF1 (UniProt Q9H063)	-0.373	-0.0772	-0.00412
MAGEA1 (UniProt P43355)	1.03	0.195	0.0019
MAGED2 (UniProt Q9UNF1)	0.741	-0.0801	0.24
MAGOH|MAGOHB	0.0412	0.0953	0.171
MAGT1 (UniProt Q9H0U3)	0.251	-3.45	-2.9
MALSU1 (UniProt Q96EH3)	-1.01	-1.47	-1.5
MALT1 (UniProt Q9UDY8)	0.37	-0.539	0.249
MAML1 (UniProt Q92585)	1.03	0.141	0.017
MAMLD1 (UniProt Q13495)	0.345	0.0249	0.146
MAN1A1 (UniProt P33908)	0.104	0.547	0.362
MAN1A2 (UniProt O60476)	-0.352	-0.432	-0.498
MAN1B1 (UniProt Q9UKM7)	0.103	-0.361	-0.286
MAN2A1 (UniProt Q16706)	-0.264	-0.502	-0.428

Target	thermal stability z-score (potassium arsenate)	thermal stability z-score (lipoamide; [1])	thermal stability z-score (lipoamide; arsenate co-treatment: none)
MAN2B1 (UniProt O00754)	-0.312	-1.18	-0.63
MANBA (UniProt O00462)	-0.726	-1.33	-1.4
MANBAL (UniProt Q9NQG1)	0.0493	1.06	1.59
MANEAL (UniProt Q5VSG8)	0.736	-0.276	0.109
MANF (UniProt P55145)	0.0791	0.0932	-0.0959
MAP1LC3B2|MAP1LC3B	0.485	0.0751	0.888
MAP1S (UniProt Q66K74)	-0.318	-0.223	-0.342
MAP2K1 (UniProt Q02750)	-0.118	-0.382	-0.187
MAP2K2 (UniProt P36507)	0.0169	-0.441	-0.022
MAP2K3 (UniProt P46734)	0.235	-0.4	-0.138
MAP2K4 (UniProt P45985)	-0.444	-0.37	0.139
MAP2K6 (UniProt P52564)	-0.021	-0.0718	0.061
MAP2K7 (UniProt O14733)	0.54	-0.121	0.341
MAP3K2 (UniProt Q9Y2U5)	-0.71	0.15	-0.461
MAP3K6 (UniProt O95382)	-0.0305	0.0331	-0.0259
MAP3K7 (UniProt O43318)	0.066	0.164	0.123
MAP4 (UniProt P27816)	-0.384	0.0996	0.243
MAP4K3 (UniProt Q8IVH8)	0.139	0.23	-0.0792
MAP4K4 (UniProt O95819)	0.303	-0.599	-0.0959
MAP4K5 (UniProt Q9Y4K4)	0.00285	-0.212	0.00139
MAP7 (UniProt Q14244)	-0.779	0.478	-0.183
MAP7D1 (UniProt Q3KQU3)	-0.702	0.172	-0.0726
MAP7D3 (UniProt Q8IWC1)	-1.36	-0.18	-0.509
MAPK1 (UniProt P28482)	-0.175	0.246	-0.0239
MAPK3 (UniProt P27361)	-0.214	-0.115	-0.114
MAPK7 (UniProt Q13164)	0.334	0.0307	0.141
MAPK8 (UniProt P45983)	-0.00139	0.24	0.00773
